Reference: PMC8861050, “Design, synthesis and evaluation of novel 2-oxoindoline-based acetohydrazides as antitumor agents” (Scientific Reports, 2022)

How the values were obtained:
[1] = test system: NCI-H23 (lung cancer); experiment: SRB cytotoxicity assay, NCI-H23; assay type: cell-based; conditions: Homo sapiens, 48 h incubation, mean ± SEM of 3 independent experiments
Summary of the method: (§1)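 Cells in DMEM were seeded at 3 × 10^4 cells/mL and preincubated 24 h at 37 °C, 5% CO2. Compounds were added in medium at 1% DMSO for 48 h. Cell density was read by sulforhodamine B staining, with IC50 by probit analysis as the mean of three independent screens.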

[2] = Cytotoxicity on normal mesenchymal stem cells; assay type: cell-based; conditions: human bone marrow-derived mesenchymal stem cells; mean ± SEM; read-out: Cytotoxicity (IC50) MSCs
[3] = test system: SW620 (colon cancer); experiment: SRB cytotoxicity assay, SW620; assay type: cell-based; conditions: Homo sapiens, SW-620, 48 h incubation, mean ± SEM of 3 independent experiments
Summary of the method: as §1

[4] = test system: U937 cells; experiment: Annexin V-FITC/PI apoptosis assay; assay type: cell-based, human; conditions: 24 h
Protocol: The Annexin V-FITC/PI dual staining assay was used to determine the percentage of apoptotic cells. U937 cells (5 × 10^5/mL per well) were plated in 6-well culture plates and allowed to grow for 24 h. In our first experiment, we examined the effects of 4f, 4h, 4n, 4o, 4p, and PAC-1 on apoptosis at 50 µM. In the second experiment, we examined the dose-dependent effect of 4o at 5, 10, and 30 µM and PAC-1 at 30 µM on apoptosis. The cells were treated with compounds for 24 h, and then harvested. The harvested cells were washed twice with ice-cold PBS and incubated in the dark at room temperature in […] of 1 × binding buffer containing 1 µL Annexin V-FITC and […] PI. After 15 min incubation, cells were analyzed for percentage undergoing apoptosis using a FACScalibur flow cytometer (BD Biosciences). The data were processed using Cell Quest Pro software (BD Biosciences).
Figure 5 Apoptosis (Annexin V/PI) analysis of cells after treatment with some compounds. U937 cells were treated with compounds (50 µM) for 24 h. The harvested cells were incubated with Annexin V-FITC and PI and analyzed by using flow cytometry. Ten thousand cells were acquired (n = 3). UN untreated, VH vehicle (DMSO. 0.1%). Representative dot plots (A). Live cells, left down in dot plot. Early apoptotic cells, right down. Necrotic cells, left up, Late apoptotic cells, right up. Bar graph of late apoptotic cells (B). p values were calculated using one-way ANOVA in GraphPad Software (San Diego, CA, USA). *p < 0.01 vs VH control. TEXT PRINTED IN THE PICTURE: (A) PAC-1: 10.40%; 29.30%; 12.70% | (A) 4f: 0.52%; 6.05%; 5.41% | (A) 4h: 0.89%; 13.20%; 7.67% | (A) 4n: 0.44%; 6.83%; 5.73% | (A) 4o: 0.67%; 17.30%; 8.17% | (A) 4p: 1.60%; 13.00%; 5.86% DOUBTS OF THE COPYIST ABOUT THIS PICTURE: The quadrant percentages are in small italic print over the dot plots, so 3, 5, 6, 8 and 9 cannot always be told apart. All values given are best readings. / PAC-1: 10.40%, 29.30% and 12.70% are best readings (29.30 could be 28.30) / 4f: 0.52%, 6.05% and 5.41% are best readings (6.05 could be 6.06 or 8.05) / 4h: 0.89%, 13.20% and 7.67% are best readings (0.89 could be 0.86 or 0.69) / 4n: 0.44%, 6.83% and 5.73% are best readings (6.83 could be 6.63 or 6.88) / 4o: 0.67%, 17.30% and 8.17% are best readings (8.17 could be 6.17) / 4p: 1.60%, 13.00% and 5.86% are best readings (5.86 could be 5.88 or 5.66) / The picture prints no measure for the percentages; only their quadrant position tells them apart. They are listed upper left, upper right, lower right. / The plots UN (0.70%, 2.31%, 3.03%) and VH (1.75%, 2.43%, 3.57%) are controls, not substances, and are left out of the lines.
Figure 6 Apoptosis (Annexin V/PI) analysis of cells after treatment with different concentrations of compound 4o. U937 cells were treated with compound 4o at 5, 10 and 30 µM or PAC-1 (30 µM) for 24 h. The harvested cells were incubated with Annexin V-FITC and PI and analyzed by using flow cytometry. Ten thousand cells were acquired (n = 3). UN untreated, VH vehicle (DMSO. 0.1%). Representative dot plots (A). Live cells, left down in dot plot. Early apoptotic cells, right down. Necrotic cells, left up, Late apoptotic cells, right up. Bar graph of late apoptotic cells (B). p values were calculated using one-way ANOVA in GraphPad Software (San Diego, CA, USA). *p < 0.01 vs VH control.

[5] = test system: PC3 (prostate cancer); experiment: SRB cytotoxicity assay, PC3; assay type: cell-based; conditions: Homo sapiens, 48 h incubation, mean ± SEM of 3 independent experiments
Summary of the method: as §1

COc1ccc(/C=N/NC(=O)CN2C(=O)Cc3cc(F)ccc32)c(O)c1 [Compound 4o, (E)-N'-(2-Hydroxy-4-methoxybenzylidene)-2-(5-fluoro-2-oxoindolin-1-yl)acetohydrazide]
IC50 [1]: 1 ± 0.01 µM
IC50 [2]: 12.8 ± 0.71 µM
IC50 [3]: 1.88 ± 0.02 µM
Late apoptotic cell population, dose dependence ([4]; U937, 5 µM): increased late apoptotic cell population
Apoptotic effects compared among the representative compounds ([4]; U937, 50 µM): more prominent
Induction of apoptosis (Annexin V-FITC/PI) ([4]; U937, 50 µM): induced early, and more substantially, late apoptosis
IC50 [5]: 1.83 ± 0.07 µM
